# Tests used:
# IL-17A = assay: TH17 cytokine inhibition as measured by ELISA: IL-17A; assay type: cell-based; settings: 120 h; human TH17 cells, 5 days differentiation, ELISA of supernatant
# Procedure: (§1) Peripheral blood mononuclear cells (PBMCs) were sourced from freshly prepared leukocyte enriched plasma (buffy coat) from healthy volunteers from which PBMCs were isolated by density gradient centrifugation using Ficoll-Paque™ PLUS (GE Healthcare). Naïve CD4+ T cells were isolated using the Naïve CD4+ T cell Isolation Kit II (Miltenyi Biotec) as per manufacturer's instructions. CD4+ T cells were plated at 5×10^4 cells/well in 96 well plates pre-coated with immobilized human (h)-αCD3 antibody (eBioscience) then differentiated to TH17 cells using h-αCD28, h-αIFNγ, h-αIL4, h-IL6, h-IL23, h-IL1β, h-TGFβ1 (eBioscience) and maintained in a cell culture incubator at 37° C. with 5% CO2 in TexMACS Medium (Miltenyi Biotec) supplemented with 1% Penicillin/Streptomycin (Lonza) over 5 days.
# (§2) Human CD4+ T cells were differentiated to TH17 cells as described in the presence or absence of various concentrations of compounds in a final concentration of 0.1% DMSO in TexMACS medium. Supernatants were collected and stored at −20° C. until they were to be assayed for IL-17A, IL-17F, IL-17AF, IL-21 and/or IL-22 levels as determined by Ready-Set-Go ELISA kits (eBioscience) as per manufacturer's instructions. Endpoint absorbance was read at 450 nm and 570 nm according to manufacturer's instructions (eBioscience) using a microplate reader (Perkin Elmer). The percentage of cytokine inhibition was calculated with reference to DMSO treated cells and the IC50s were determined by GraphPad Prism software and presented in the table below.
# RORα LBD [1] = target: T1, RORα LBD (Homo sapiens (Human), UniProt P35398); assay: TR-FRET co-activator D22 interaction with RORα LBD; assay type: biochemical
# T1 sequence (P35398 272-510): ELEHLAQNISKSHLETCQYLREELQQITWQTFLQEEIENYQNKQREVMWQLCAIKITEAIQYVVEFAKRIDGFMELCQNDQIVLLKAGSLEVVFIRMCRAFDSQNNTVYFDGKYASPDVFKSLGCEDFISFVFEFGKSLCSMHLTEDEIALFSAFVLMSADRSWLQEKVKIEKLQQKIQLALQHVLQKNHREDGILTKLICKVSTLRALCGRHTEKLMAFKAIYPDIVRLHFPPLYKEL
# Excerpt: (§3) The Time-Resolved Fluorescence Resonance Energy Transfer (TR-FRET) assay kit (Life Technologies) was used to measure compound efficacy to disrupt or enhance ligand-mediated interaction of the co-activator and co-repressor peptides with the purified GST-tagged (i) RORγ LBD or (ii) […]. The RORγ LBD and RORα LBD each have a basal level of interaction with the co-activator D22 or co-repressor NCoR1-D2 in the absence of ligand, thus it is possible to identify compounds that inhibit or induce RORγ and/or RORα co-activator/co-repressor interactions, thus determining RORα, RORγ, or RORα/RORγ compound selectivity. The assay was performed as per manufacturer's instructions and TR-FRET was assessed 2 and 20 hours post-assay initiation. Compounds were identified to (i) have no impact on either co-activator displacement or […] from the assessed LBD (ii) promote co-activator displacement from the assessed LBD (iii) promote co-repressor recruitment to the assessed LBD or (iv) concurrently promote co-activator displacement from the assessed LBD and co-repressor recruitment to the assessed LBD.
# IL-17F = assay: TH17 cytokine inhibition as measured by ELISA: IL-17F; assay type: cell-based; settings: 120 h; human TH17 cells, 5 days differentiation, ELISA of supernatant
# Procedure: as §1, §2
# RORγ LBD [2] = target: T2, RORγ LBD (Homo sapiens (Human), UniProt P51449); assay: TR-FRET co-activator D22 interaction with RORγ LBD; assay type: biochemical
# T2 sequence (P51449 269-508): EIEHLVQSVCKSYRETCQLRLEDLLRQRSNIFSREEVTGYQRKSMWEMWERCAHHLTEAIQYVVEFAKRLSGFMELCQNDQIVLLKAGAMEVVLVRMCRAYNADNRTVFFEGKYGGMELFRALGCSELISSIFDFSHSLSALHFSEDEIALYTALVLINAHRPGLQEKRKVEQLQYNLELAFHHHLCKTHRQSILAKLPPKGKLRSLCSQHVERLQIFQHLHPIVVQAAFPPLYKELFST
# Excerpt: as §3
# RORγ LBD [3] = target: T2, RORγ LBD; assay: TR-FRET co-repressor NCoR1-D2 interaction with RORγ LBD; assay type: biochemical
# Excerpt: as §3
# RORα LBD [4] = target: T1, RORα LBD; assay: TR-FRET co-repressor NCoR1-D2 interaction with RORα LBD; assay type: biochemical
# Excerpt: as §3
# IL-22 = assay: TH17 cytokine inhibition as measured by ELISA: IL-22; assay type: cell-based; settings: 120 h; human TH17 cells, 5 days differentiation, ELISA of supernatant
# Procedure: as §1, §2
# [5] = TH17 cell viability (Prestoblue); assay type: cell-based; set-up: concentration or dose not given beside the values; settings: human; percentage of DMSO treated cells; read-out: % viability of compound treated TH17 cells
# Procedure: as §1
# Cells were assayed for viability in the presence or absence of compound using Prestoblue® Cell Viability Reagent (Life Technologies) as per manufacturer's instructions after 30 minutes incubation of TH17 cells with reagent. Absorbance was measured at 570 nm and 600 nm using a microplate reader (Perkin Elmer) and data were analyzed as per manufacturer's instructions. Cell viability was expressed as a percentage of DMSO treated cells.
# TH17 cells = assay: TH17 cellular proliferation (Prestoblue); assay type: cell-based; settings: Homo sapiens, 120 h; 3 μM compound, after 5 day TH17 differentiation, relative to DMSO treated TH17 cells; read-out: % change in TH17 cell number
# Procedure: as §1
# Cellular proliferation was assessed in the presence or absence of 3 μM compound using Prestoblue® Cell Viability Reagent (Life Technologies) as per manufacturer's instructions using absorbance as the output measured by a microplate reader (Perkin Elmer) after 30 minutes of incubation of cells and reagent. A standard curve developed by plotting varying cell numbers versus absorbance was used to assess differences in cellular proliferation between compound treated or untreated cells after the 5 day TH17 differentiation period.
# [6] = 2 hr, read-out: RORα EC50 D22 co-activator displacement 2 hr
# [7] = 20 hr, read-out: RORα EC50 D22 co-activator displacement 20 hr
# [8] = 2 hr, read-out: RORγ EC50 D22 co-activator displacement 2 hr
# [9] = 20 hr, read-out: RORγ EC50 D22 co-activator displacement 20 hr
# [10] = 2 hr, read-out: RORγ EC50 NCoR1-D2 co-repressor recruitment 2 hr
# [11] = 20 hr, read-out: RORγ EC50 NCoR1-D2 co-repressor recruitment 20 hr
# [12] = 2 hr, read-out: RORα EC50 NCoR1-D2 co-repressor recruitment 2 hr
# [13] = 20 hr, read-out: RORα EC50 NCoR1-D2 co-repressor recruitment 20 hr
# [14] = 2 hr, co-activator recruitment (π), read-out: RORγ EC50 D22 2 hr (demonstrates co-activator recruitment)
# [15] = 2 hr, co-activator recruitment (π), read-out: RORα EC50 D22 2 hr (demonstrates co-activator recruitment)
# [16] = 20 hr, co-activator recruitment (π), read-out: RORα EC50 D22 20 hr (demonstrates co-activator recruitment)
IC50 (IL-17A) [µM],EC50 (RORα LBD [1]; [6]) [µM],EC50 (RORα LBD [1]; [7]) [µM],IC50 (IL-17F) [µM],EC50 (RORγ LBD [2]; [8]) [µM],EC50 (RORγ LBD [2]; [9]) [µM],EC50 (RORγ LBD [3]; [10]) [µM],EC50 (RORγ LBD [3]; [11]) [µM],EC50 (RORα LBD [4]; [12]) [µM],EC50 (RORα LBD [4]; [13]) [µM],IC50 (IL-22) [µM],EC50 (RORγ LBD [2]; [14]) [µM],EC50 (RORα LBD [1]; [15]) [µM],EC50 (RORα LBD [1]; [16]) [µM],"EC50 (RORγ LBD [2]; 20 hr, co-activator recruitment (π), read-out: RORγ EC50 D22 20 hr (demonstrates co-activator recruitment)) [µM]","EC50 (RORα LBD [4]; 20 hr, co-repressor displacement (Ω), read-out: RORα EC50 NCoR1-D2 20 hr (demonstrates co-repressor displacement)) [µM]",SMILES,viability [5] [%],inhibition at 3 µM (TH17 cells) [%]
> 10,< 30,< 30,> 10,> 30,> 30,> 30,> 30,> 30,> 30,< 10,–,–,–,–,–,"CC(=O)Nc1ccc2c(c1)CCN2Cc1ccc(C2(O)CCC2)cc1 [Example 10, N-(1-(4-(1-hydroxycyclobutyl)benzyl)indolin-5-yl)acetamide]",> 80,–
< 10,> 30,> 30,< 10,> 30,< 30,> 30,> 30,> 30,> 30,< 10,–,–,–,–,–,"CC(=O)Nc1ccc2c(c1)CCN2Cc1ccc(C(F)(F)F)cc1 [Example 7, N-(1-(4-(trifluoromethyl)benzyl)indolin-5-yl)acetamide]",> 80,≤ 50
> 10,–,–,> 10,–,–,> 30,> 30,> 30,–,> 10,< 30,< 30,< 30,< 30,< 30,"CNC(=O)c1ccc(CN2CCc3cc(NC(C)=O)ccc32)cc1 [Example 12, 4-((5-acetamidoindolin-1-yl)methyl)-N-methylbenzamide]",> 80,≤ 50
> 10,> 30,> 30,> 10,> 30,> 30,> 30,> 30,> 30,> 30,> 10,–,–,–,–,–,"CC(=O)Nc1ccc2c(c1)CCN2Cc1ccc(C(=O)N(C)C)cc1 [Example 13, 4-((5-acetamidoindolin-1-yl)methyl)-N,N-dimethylbenzamide]",> 80,≤ 50
> 10,–,–,> 10,–,> 30,> 30,> 30,> 30,> 30,> 10,< 30,< 30,< 30,–,–,"CC(=O)Nc1ccc2c(c1)CCN2Cc1ccc(C(N)=O)cc1 [Example 11, 4-((5-acetamidoindolin-1-yl)methyl)benzamide]",> 80,≤ 50
< 10,> 30,> 30,< 10,< 30,< 30,> 30,> 30,> 30,> 30,< 10,–,–,–,–,–,"CC(=O)Nc1ccc2c(c1)CCN2Cc1ccc(C(C)C)cc1 [Example 8, N-(1-(4-isopropylbenzyl)indolin-5-yl)acetamide]",> 80,≤ 50
< 10,< 30,> 30,< 10,< 30,< 30,> 30,> 30,> 30,< 30,< 10,–,–,–,–,–,"CC(=O)Nc1ccc2c(ccn2Cc2ccc(C(O)(C(F)(F)F)C(F)(F)F)cc2)c1 [Example 16, N-(1-(4-(1,1,1,3,3,3-hexafluoro-2-hydroxypropan-2-yl)benzyl)-1H-indol-5-yl)acetamide]",> 80,≤ 50
< 10,> 30,> 30,< 10,> 30,> 30,> 30,> 30,> 30,> 30,< 10,–,–,–,–,–,"CC(=O)Nc1ccc2c(c1)CCN2Cc1ccc(-c2cc(C)n[nH]2)cc1 [Example 9, N-(1-(4-(3-methyl-1H-pyrazol-5-yl)benzyl)indolin-5-yl)acetamide]",> 80,–

SMILES,IC50 (IL-17A) [µM],EC50 (RORα LBD [1]; [6]) [µM],EC50 (RORα LBD [1]; [7]) [µM],IC50 (IL-17F) [µM],EC50 (RORγ LBD [2]; [8]) [µM],EC50 (RORγ LBD [2]; [9]) [µM],EC50 (RORγ LBD [3]; [10]) [µM],EC50 (RORγ LBD [3]; [11]) [µM],EC50 (RORα LBD [4]; [12]) [µM],EC50 (RORα LBD [4]; [13]) [µM],IC50 (IL-22) [µM],EC50 (RORγ LBD [2]; [14]) [µM],EC50 (RORα LBD [1]; [15]) [µM],EC50 (RORα LBD [1]; [16]) [µM],"EC50 (RORγ LBD [2]; 20 hr, co-activator recruitment (π), read-out: RORγ EC50 D22 20 hr (demonstrates co-activator recruitment)) [µM]","EC50 (RORα LBD [4]; 20 hr, co-repressor displacement (Ω), read-out: RORα EC50 NCoR1-D2 20 hr (demonstrates co-repressor displacement)) [µM]",viability [5] [%],inhibition at 3 µM (TH17 cells) [%]
"CC(=O)Nc1ccc2c(c1)CCN2Cc1ccc(C(=O)N(C)c2ccccc2)cc1 [Example 14, 4-((5-acetamidoindolin-1-yl)methyl)-N-methyl-N-phenylbenzamide]",< 10,> 30,> 30,< 10,–,> 30,> 30,> 30,> 30,> 30,< 10,< 30,–,–,–,–,> 80,–
"CC(=O)Nc1ccc2c(c1)CCN2Cc1ccc(C(=O)Nc2ccccc2)cc1 [Example 15, 4-((5-acetamidoindolin-1-yl)methyl)-N-phenylbenzamide]",< 10,> 30,> 30,< 10,< 30,< 30,> 30,> 30,> 30,> 30,< 10,–,–,–,–,–,> 80,≤ 50
